Where two headings read alike, the source gives them in different places.

The target in the assay is T1, IRAK4 (Homo sapiens, UniProt Q9NWZ3).
T1 sequence (Q9NWZ3 1-460): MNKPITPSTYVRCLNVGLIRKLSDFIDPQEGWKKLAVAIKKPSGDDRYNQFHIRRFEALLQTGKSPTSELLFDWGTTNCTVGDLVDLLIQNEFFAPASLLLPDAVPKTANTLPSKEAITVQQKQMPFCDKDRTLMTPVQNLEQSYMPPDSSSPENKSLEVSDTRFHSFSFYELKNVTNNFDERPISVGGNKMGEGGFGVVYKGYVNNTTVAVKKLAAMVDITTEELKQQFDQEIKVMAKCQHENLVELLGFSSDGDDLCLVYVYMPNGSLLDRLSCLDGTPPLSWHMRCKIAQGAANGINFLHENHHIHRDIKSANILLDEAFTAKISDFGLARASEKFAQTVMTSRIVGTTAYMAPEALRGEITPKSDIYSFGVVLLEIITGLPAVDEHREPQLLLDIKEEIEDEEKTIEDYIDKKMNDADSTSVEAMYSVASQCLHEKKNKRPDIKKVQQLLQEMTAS
Put plainly: WB detection of proteolysis (Western Blot, THP-1 cells). The assay is classed as cell-based. Particulars: Western Blot, THP-1 cells, 24 h; for DC50: read-out: DC50. On the procedure:
The degradation level of IRAK4 in THP-1 cells was detected by Western Blot technology. […] 1000X gradient dilution stock of the compound was prepared, with the highest concentration set at 300 µM. The dilution was carried out using DMSO in a 1:3 dilution factor, yielding a total of 9 concentrations. 1000X gradient dilutions of the compound were added to a 12-well plate, with 1 µL per well. Incubation was performed under conditions of 37°C and 5% CO2 for 24 h, and the cells were collected into 2 mL of centrifuge tubes and centrifuged at 5000 rpm for 5 min, and the supernatant was removed. 100 µL of RIPA lysis buffer (Beyotime, P0013C) was added and mixed uniformly, then the cells were lysed on ice for 10 min, centrifuged at 4°C at 14000 rpm for 10 min, and the supernatant was collected. Protein content was determined with BCA (Solarbio, PC0020-10*50T). 75 µL of the supernatant was taken, and 25 µL of NuPAGE LDS Sample Buffer (4X) (Thermo B0007) was added to each tube (5% β-mercaptoethanol was added before use) to prepare samples, and the samples were boiled in a metal bath at 100°C for 5 min. […] 1x NuPAGE™ MOPS SDS electrophoresis buffer (20X) (Invitrogen, NP0001) was prepared, and the electrophoresis instrument was set to a constant current of 300 mA for 100 min, and the protein was transferred to a PVDF membrane (Millipore, IPVH00010). […] The membrane was washed three times with 1x TBST (Elabscience E-BC-R335) the next day, each time for 5 min. […] The membrane was washed three times with TBST, each time for 5 min. The Odyssey imaging system Li-cor Odyssey CLx was used to detect signals and analyze data. GraphPad (Prism 9.3) software was used to perform analysis for data, and non-linear fitting (non-liner inhibitor (Bell-shaped)) and four parameters (4 parameter) were used, and the parameters was as follows: Span1 = Plateau1−Dip [formula] Span2 = Plateau2−Dip [formula] Section1 = Span1/(1+10^(∧)((LogEC50_1−X)*nH1)) [formula] Section2 = Span2/(1+10^(∧)((X−LogEC50_2)*nH2)) [formula]
The equation was as follows: Y=Dip+Section1+Section2.

Turning to `C[C@@H]1CN(C[C@H]2CC[C@H](n3cc(-n4cc(-c5cnn6ccc(N7CCC[C@H](O)C7)nc56)nn4)c(C(F)F)n3)CC2)CCN1C1CCN(c2cccc3c2n(C)c(=O)n3C2CCC(=O)NC2=O)CC1` (stereo partly drawn) [Example 294, 3-(4-(4-((R)-4-(((1R,4R)-4-(3-(difluoromethyl)-4-(4-(5-((S)-3-hydroxypiperidin-1-yl)pyrazolo[1,5-a]pyrimidin-3-yl)-1H-1,2,3-triazol-1-yl)-1H-pyrazol-1-yl)cyclohexyl)methyl)-2-methylpiperazin-1-yl)piperidin-1-yl)-3-methyl-2-oxo-2,3-dihydro-1H-benzo[d]imidazol-1-yl)piperidine-2,6-dione], the DC50 is below 10 nM. The Dmax (read-out: Dmax) is above 70%.

For `C[C@@H]1CC2(CCN(c3cccc4c3n(C)c(=O)n4C3CCC(=O)NC3=O)CC2)CN1C[C@H]1CC[C@H](n2cc(-n3cc(-c4cnn5ccc(N6CCC[C@H](O)C6)nc45)nn3)c(C(F)F)n2)CC1` (stereo partly drawn) [Example 296], the DC50 fell in the range of 10 to 30 nM. Also, the Dmax (read-out: Dmax) is above 70%.

`Cn1c(=O)n(C2CCC(=O)NC2=O)c2cccc(N3CCC4(CCN(CC5CCC(n6cc(-n7cc(-c8cnn9ccc(N%10CCO[C@@H](CO)C%10)nc89)nn7)c(C(F)F)n6)CC5)CC4)CC3)c21` (stereo partly drawn) [Example 176]: the Dmax result is “A (Dmax ≥ 70%)” and the DC50 is below 10 nM.

As for `Cn1nc(N2CCC(=O)NC2=O)c2ccc(N3CCC(N4CCN(C[C@H]5CC[C@H](n6cc(-n7cc(-c8cnn9ccc(N[C@@H]%10CCCC[C@@H]%10O)nc89)nn7)c(C(F)F)n6)CC5)CC4)CC3)cc21` [Example 161], the DC50 is above 30 nM. Also, the Dmax (read-out: Dmax) is below 60%.

Regarding `Cn1c(=O)n(C2CCC(=O)NC2=O)c2cccc(N3CCC(N4CCN(C[C@H]5CC[C@H](n6cc(-n7cc(-c8cnn9ccc(N%10CCO[C@@H](CO)C%10)nc89)nn7)c(C(F)F)n6)CC5)CC4)CC3)c21` (stereo partly drawn) [Example 175], the DC50 is below 10 nM. In addition, the Dmax (read-out: Dmax) is above 70%.

As for `Cn1nc(C2CCC(=O)NC2=O)c2cccc(N3CCC(N4CCN(C[C@H]5CC[C@H](n6cc(-n7cc(-c8cnn9ccc(N%10CCC[C@H](O)C%10)nc89)nn7)c(C(F)F)n6)CC5)CC4)CC3)c21` (stereo partly drawn) [Example 293], the DC50 was below 10 nM. Further, the Dmax (read-out: Dmax) is above 70%.

For `Cn1c(=O)n(C2CCC(=O)NC2=O)c2cccc(N3CCC(N4CCN(C[C@H]5CC[C@H](n6cc(-n7cc(-c8cnn9ccc(N%10CCOC[C@@H]%10CO)nc89)nn7)c(C(F)F)n6)CC5)CC4)CC3)c21` (stereo partly drawn) [Example 173], the DC50 is below 10 nM. Besides, under “read-out: Dmax”, the Dmax was above 70%.

As to `C[C@H]1CC2(CCN(c3cccc4c3n(C)c(=O)n4C3CCC(=O)NC3=O)CC2)CN1C[C@H]1CC[C@H](n2cc(-n3cc(-c4cnn5ccc(N6CCC[C@H](O)C6)nc45)nn3)c(C(F)F)n2)CC1` (stereo partly drawn) [Example 295, 3-(4-((S)-2-(((1R,4S)-4-(3-(difluoromethyl)-4-(4-(5-((S)-3-hydroxypiperidin-1-yl)pyrazolo[1,5-a]pyrimidin-3-yl)-1H-1,2,3-triazol-1-yl)-1H-pyrazol-1-yl)cyclohexyl)methyl)-3-methyl-2,8-diazaspiro[4.5]dec-8-yl)-3-methyl-2-oxo-2,3-dihydro-1H-benzo[d]imidazol-1-yl)piperidine-2,6-dione], the DC50 is above 30 nM. Also, the Dmax (read-out: Dmax) is above 70%.

Consider `C[C@H]1CN(C[C@H]2CC[C@H](n3cc(-n4cc(-c5cnn6ccc(N[C@@H]7CCCC[C@@H]7O)nc56)nn4)c(C(F)F)n3)CC2)CCN1C1CCN(c2cccc3c2n(C)c(=O)n3C2CCC(=O)NC2=O)CC1` (stereo partly drawn) [Example 166], for which the DC50 is below 10 nM. Moreover, the Dmax (read-out: Dmax) is above 70%.

Turning to `Cn1c(=O)n(C2CCC(=O)NC2=O)c2cccc(N3CCC(N4CCN(C[C@H]5CC[C@H](n6cc(-n7cc(-c8cnn9ccc(N%10CCC[C@@H](O)C%10)nc89)nn7)c(C(F)F)n6)CC5)CC4)CC3)c21` (stereo partly drawn) [Example 247], the DC50 is below 10 nM. In addition, the Dmax (read-out: Dmax) was above 70%.

As to `C[C@@H]1CN(C2CCN(c3cccc4c3n(C)c(=O)n4C3CCC(=O)NC3=O)CC2)CCN1C[C@H]1CC[C@H](n2cc(-n3cc(-c4cnn5ccc(N6CCC[C@H](O)C6)nc45)nn3)c(C(F)F)n2)CC1` (stereo partly drawn) [Example 292], the DC50 is below 10 nM. For the same compound, the Dmax (read-out: Dmax) was above 70%.

As to `Cn1c(=O)n(C2CCC(=O)NC2=O)c2cccc(N3CCC(CN4CCC5(CCC(n6cc(-n7cc(-c8cnn9ccc(N[C@@H]%10CCCC[C@@H]%10O)nc89)nn7)c(C(F)F)n6)CC5)CC4)CC3)c21` (stereo partly drawn) [Example 171, 3-(4-(4-((9-(3-(difluoromethyl)-4-(4-(5-(((1R,2S)-2-hydroxycyclohexyl)amino)pyrazolo[1,5-a]pyrimidin-3-yl)-1H-1,2,3-triazol-1-yl)-1H-pyrazol-1-yl]-3-azaspiro[5.5]undecan-3-yl)methyl)piperidin-1-yl)-3-methyl-2-oxo-2,3-dihydro-1H-benzo[d]imidazol-1-yl)piperidine-2,6-dione], the DC50 was below 10 nM. The Dmax (read-out: Dmax) was above 70%.

Turning to `C[C@H]1CN(c2cccc3c2n(C)c(=O)n3C2CCC(=O)NC2=O)CCN1C[C@H]1CC[C@H](n2cc(-n3cc(-c4cnn5ccc(N6CCC[C@H](O)C6)nc45)nn3)c(C(F)F)n2)CC1` (stereo partly drawn) [Example 287, 3-(4-((S)-4-(((1R,4S)-4-(3-(difluoromethyl)-4-(4-(5-((S)-3-hydroxypiperidin-1-yl)pyrazolo[1,5-a]pyrimidin-3-yl)-1H-1,2,3-triazol-1-yl)-1H-pyrazol-1-yl)cyclohexyl)methyl)-3-methylpiperazin-1-yl)-3-methyl-2-oxo-2,3-dihydro-1H-benzo[d]imidazol-1-yl)piperidine-2,6-dione], the DC50 was below 10 nM. Besides, the Dmax (read-out: Dmax) was above 70%.

On to `Cn1c(=O)n(C2CCC(=O)NC2=O)c2cccc(N3CCC(CN4CCC5(CCC(n6cc(-n7cc(-n8ccc9cc(C(N)=O)cnc98)nn7)c(C(F)F)n6)CC5)CC4)CC3)c21` (stereo not drawn) [Example 286], for which the DC50 was above 30 nM. For the same compound, under “read-out: Dmax”, the Dmax is below 60%.

Regarding `Cn1c(=O)n(C2CCC(=O)NC2=O)c2cccc(N3CCC(CN4CCC5(CCC(n6cc(-n7cc(-c8ccc9cc(C(N)=O)cnn89)nn7)c(C(F)F)n6)CC5)CC4)CC3)c21` (stereo not drawn) [Example 172], the DC50 is below 10 nM. Moreover, the Dmax (read-out: Dmax) was above 70%.

Consider `Cn1c(=O)n(C2CCC(=O)NC2=O)c2cccc(N3CCCN(C[C@H]4CC[C@H](n5cc(-n6cc(-c7ccc8cc(C(N)=O)cnn78)nn6)c(C(F)F)n5)CC4)CC3)c21` (relative stereo) [Example 289, 7-(1-(3-(difluoromethyl)-1-((1R,4R)-4-((4-(1-(2,6-dioxopiperidin-3-yl)-3-methyl-2-oxo-2,3-dihydro-1H-benzoimidazol-4-yl)-1,4-diazepan-1-yl)methyl)cyclohexyl)-1H-pyrazol-4-yl)-1H-1,2,3-triazol-4-yl)pyrrolo[1,2-b]pyridazine-3-carboxamide], for which the DC50 was below 10 nM. Besides, for the setting “read-out: Dmax”, the Dmax is below 60%.

Consider `C[C@H]1CN(C2CCN(c3cccc4c3n(C)c(=O)n4C3CCC(=O)NC3=O)CC2)CCN1C[C@H]1CC[C@H](n2cc(-n3cc(-c4cnn5ccc(N6CCC[C@H](O)C6)nc45)nn3)c(C(F)F)n2)CC1` (stereo partly drawn) [Example 291, 3-(4-(4-((S)-4-(((1R,4S)-4-(3-(difluoromethyl)-4-(4-(5-((S)-3-hydroxypiperidin-1-yl)pyrazolo[1,5-a]pyrimidin-3-yl)-1H-1,2,3-triazol-1-yl)-1H-pyrazol-1-yl)cyclohexyl)methyl)-3-methylpiperazin-1-yl)piperidin-1-yl)-3-methyl-2-oxo-2,3-dihydro-1H-benzo[d]imidazol-1-yl)piperidine-2,6-dione], for which the DC50 is below 10 nM. The Dmax (read-out: Dmax) is above 70%.

`Cn1c(=O)n(C2CCC(=O)NC2=O)c2cccc(N3CCC(CN4CCC5(CCC(n6cc(-n7cc(-c8cnn9ccc(N%10CCC[C@H](O)C%10)nc89)nn7)c(C(F)F)n6)CC5)CC4)CC3)c21` (stereo partly drawn) [Example 290]: the DC50 was below 10 nM. For the same compound, for the setting “read-out: Dmax”, the Dmax is above 70%.

For the origin of these results see patent EP4759807A1, “PROTEOLYSIS TARGETING CHIMERA COMPOUND FOR DEGRADING IRAK4 AND USE THEREOF” (Shenzhen Zhongge Biological Technology Co., Ltd., priority 2023, dated 2025).
